The values that follow come from US20020136817A1 (priority 1999, published 2002).

One data set relates to calcium kidney stones. Briefly: Urinary risk of forming calcium kidney stones in individuals with oxalocalcium kidney stones, before and 15 days after treatment start. It is filed as in vivo, human. As to conditions: for drop of the risk of forming calcium stones: 15 days after treatment start, citrate 6.48 g/day (Group II, potassium citrate tablets), phytate 120 mg/day (Group III, dietetic supplement). The protocol: These individuals have been divided into three groups: 19 individuals with kidney stones (Group I), 38 individuals with kidney stones (Group II) and 17 individuals with kidney stones (Group III). The urinary risk to form calcium kidney stones was evaluated for each individual before being subjected to any pharmacological treatment. […] 15 days after treatment starting, the urinary risk of forming calcium kidney stones was evaluated again for each individual.

The conditions of data set [1]: cited from earlier work.

Where a name gives a salt, the structure may show the parent alone.

`O=C(O)CC(O)(CC(=O)O)C(=O)O` [citrate, potassium citrate, reference compound]: the “drop of the risk of forming calcium stones” value in the data set with calcium kidney stones was found to be 52%.
For `O=P(O)(O)O[C@H]1[C@H](OP(=O)(O)O)[C@@H](OP(=O)(O)O)[C@H](OP(=O)(O)O)[C@@H](OP(=O)(O)O)[C@H]1OP(=O)(O)O` [phytate, inositol hexaphosphate], the “drop of the risk of forming calcium stones” value in the data set on calcium kidney stones is 50%. Moreover, the “effect on urine pH” value in the data set on calcium kidney stones (treatment of calcium kidney stones, compared with citrate) was “does not cause increases of the urine pH”. Also, the “levels of phytates in urine and blood without intake” value in data set [1] (after 10 days without a phytate intake) is on record as “drop to practically undetectable values”. Moreover, in data set [1] (diet supplemented with products rich in phytates), the “maximum urinary excretions as share of the total intake” value was 1-5%. In addition, the “intake above which the amount excreted in urine does not increase” value in data set [1] (dose-dependent urinary excretion) is listed as 20.9 mg/kg of body weight.
